Measured values: patent US8999970B2, “Administration of an anti-obesity compound to individuals with renal impairment” (Arena Pharmaceuticals, Inc., priority 2010, dated 2015)

Experiments:
[1] = Toxicity studies in rats (determination of NOAEL); assay type: in vivo; conditions: for Exposure multiple relative to human exposure at 10 mg BID: rats 5 mg/kg/day (NOAEL); for Exposure multiple of human exposure at 10 mg BID: rats 50 mg/kg/day for 6 months
Procedure: In rats, a single 1000 mg/kg dose caused death. […] The highest dose tested in 28-day studies, 50 mg/kg/day, was associated with increased serum lipids, centrilobular hepatocellular hypertrophy, splenic extramedullary hematopoiesis, increased pigmented macrophages, and reticulocytosis, and increased kidney weights, with minimal renal tubular epithelial hyperplasia in males only. A 13-week study and a 6-month study gave similar findings except there was no renal tubular epithelial changes and increases in kidney weights were limited to the 3-month study; the NOAEL was 5 mg/kg/day, which produced exposure multiples of 1.2 and 2.8 (males and females) relative to human exposure at a dose of 10 mg BID.
In rats but not mice, modest increases in kidney weights were reported at high dose (≧50 mg/kg) in the 10-day, 28-day and 3-month studies, but were without microscopic correlate except in the 28-day study, in which minimal renal tubular epithelial hypertrophy was reported in male rats. In the one year toxicology study in monkeys, minimal to moderate focal tubular epithelial degeneration and/or regeneration were observed. The potential clinical relevance of this finding was evaluated in two ways. First, two pathologists with expertise in human renal pathology (Helmut Rennke, M.D. and Stephen Bonsib, M.D.) independently reviewed all monkey kidney slides from the 1-year study in a blinded manner. Both reported the findings to be mild and focal, clinically unimportant, without dose relationship, and more likely related to aging, infection, or inflammation than to study drug. Secondly, renal function was monitored in clinical trials not only by measuring creatinine and BUN, but also by examining urine sediment and by calculating creatinine clearance. The urine sediment data are of limited value due to the preponderance of “dirty” urine specimens contaminated with epithelial cells and other external debris. Neither BUN nor creatinine was affected by lorcaserin. Creatinine clearance, which was calculated using both actual body weight and the preferred ideal body weight method, was also not affected by lorcaserin use of up to 2 years.

[2] = Toxicity studies in monkeys (single dose, 28-day, 13-week, 12-month); assay type: in vivo, cynomolgus monkeys; conditions: for Exposure multiple relative to human exposure at 10 mg BID: monkeys 100 mg/kg/day
Procedure: In cynomolgus monkeys, dose-limiting emesis occurred at 300 mg/kg single dose. In repeat
In a 28-day repeat dose study, one male given 100 mg/kg/day experienced a seizure. […] Reduced weight gain and food consumption occurred in 28-day, 13-week and 12-month studies at doses ≧10 mg/kg/day. Cholesterol, LDL and HDL decreased at ≧10 mg/kg/day in the 12-month study. […] The NOAEL was considered to be 2 mg/kg/day.
This animal continued treatment on Day 2 and no further seizures were observed throughout the duration of the study. […] A reduction in serum lipids (cholesterol, HDL, and LDL) was measured in both sexes treated with ≧10 mg/kg doses of lorcaserin. Reductions in total cholesterol and LDL occurred in some animals treated with 2 mg/kg as well. There was a dose-independent reduction in the mean triglyceride concentration in both sexes at ≧2 mg/kg. Mild increases in ALT occurred primarily in females at all dose levels and in one control animal. White blood cells in the urine of some females dosed at ≧50 mg/kg/day were thought to be associated with renal tubular changes noted histologically in three out of five cases.
There were no lorcaserin-related gross findings. Histologic changes were identified in the kidneys, ovaries, and possibly in the liver. Changes in the kidney consisted of focal or multifocal tubular epithelial cell degeneration, regeneration, and cellular casts. […] The histologic renal changes attributed to lorcaserin were not associated with changes in serum chemistry or kidney function. A review of the renal findings was conducted by two expert human renal pathologists, each of whom independently read blinded slides and reached the same conclusion: the administration of lorcaserin to monkeys for 12 months was not associated with drug-related renal pathology. […] One of these pathologists attributed the potential finding of regeneration to a staining artifact resulting in a bluish cytoplasmic discoloration. […] This change was reversible after a one month drug-free interval. […] The lipidosis was not present in animals sacrificed after a one month drug-free interval. No changes were identified by the study pathologist or the peer review pathologist in the heart, heart valves, pulmonary vessels or lungs of animals given lorcaserin compared to controls.
Changes in the kidney consisted of focal tubular epithelial cell degeneration, regeneration, and cellular casts. […] These findings were not observed in previous monkey studies, and no similar kidney findings occurred in rodents. Renal findings were determined to be unrelated to lorcaserin treatment by two independent human renal pathologists after reviewing blinded slide sets. In their independent opinions, the findings were not dose related and were consistent with age and focal inflammation or infection. One pathologist attributed the findings of regeneration to a staining artifact, resulting in a bluish cytoplasmic discoloration. If tubular renal epithelial regeneration were artifactual, renal findings of the conducting laboratory would be limited to the high dose. At 2, 10, 50, and 125 mg/kg, the margins were 1.0 and 0.6, 8 and 5, 44 and 31, and 51 and 51 times human exposure at the MRD for males and females, respectively. Renal findings in rodents and monkeys were of uncertain relationship to lorcaserin. Substantial margins over human exposure exist for all renal finding in rodents, and in monkeys according to two expert human renal pathologists. Even assuming the renal findings in monkeys are drug related, the principal findings were focal or multifocal, minimal to mild (1 instance of moderate regeneration at the high dose) renal tubular epithelial regeneration and degeneration that would have had to have been much more severe and diffuse to be of clinical relevance. Based upon adverse events, clinical chemistry and urinalyses in an extensive phase 2 and phase 3 program, there is no evidence of a lorcaserin effect on the kidney in humans.

C[C@H]1CNCCc2ccc(Cl)cc21 [Lorcaserin, (R)-8-chloro-1-methyl-2,3,4,5-tetrahydro-1H-3-benzazepine]
NOAEL ([1]; both sexes, rat, in vivo, rats, 13-week and 6-month studies): 5 mg/kg/day | Single dose that caused death ([1]; rats): 1000 mg/kg | Exposure multiple relative to human exposure at 10 mg BID ([1]; females): 2.8 | Exposure multiple relative to human exposure at 10 mg BID ([1]; males): 1.2 | Exposure multiple of human exposure at 10 mg BID ([1]; females): 34 times | Exposure multiple of human exposure at 10 mg BID ([1]; males): 22 times | Doses with no mortality ([1]; rats, 10-day repeat dose studies): ≤ 150 mg/kg/day | Doses with modest increases in kidney weights ([1]; rats, 10-day, 28-day and 3-month studies): ≥ 50 mg/kg | NOAEL at 12 months ([2]; both sexes, cynomolgus monkey, in vivo, oral, monkeys, 12-month study): 2 mg/kg/day | MTD ([2]; cynomolgus monkey, in vivo, oral, monkeys, repeat dose studies, read-out: Maximum tolerated dose): 100 to 125 mg/kg/day | Single dose with dose-limiting emesis ([2]; cynomolgus monkeys): 300 mg/kg | Margin, times human exposure at the MRD ([2]; monkeys 2 mg/kg, females): 0.6 times | Margin, times human exposure at the MRD ([2]; monkeys 2 mg/kg, males): 1.0 times | Margin, times human exposure at the MRD ([2]; monkeys 10 mg/kg, females): 5 times | Margin, times human exposure at the MRD ([2]; monkeys 10 mg/kg, males): 8 times | Margin, times human exposure at the MRD ([2]; monkeys 50 mg/kg, females): 31 times | Margin, times human exposure at the MRD ([2]; monkeys 50 mg/kg, males): 44 times | Exposure multiple relative to human exposure at 10 mg BID ([2]; females): 68 | Exposure multiple relative to human exposure at 10 mg BID ([2]; males): 74 | Margin, times human exposure at the MRD ([2]; monkeys 125 mg/kg, females): 51 times | Margin, times human exposure at the MRD ([2]; monkeys 125 mg/kg, males): 51 times | Animals with focal renal tubular epithelial cell degeneration and/or regeneration (minimal to mild regeneration in renal cortex) ([2]; monkeys 12 months, 2 mg/kg): 1/8 | Females with cystic ovarian follicles ([2]; monkeys 12 months, 2 mg/kg): 0/4 | Animals with hepatic lipidosis ([2]; monkeys 12 months, 2 mg/kg/day): 4/8 | Animals with focal renal tubular epithelial cell degeneration and/or regeneration (minimal to mild regeneration in renal cortex) ([2]; monkeys 12 months, 10 mg/kg): 2/8 | Females with cystic ovarian follicles ([2]; monkeys 12 months, 10 mg/kg): 1/4 | Animals with hepatic lipidosis ([2]; monkeys 12 months, 10 mg/kg/day): 2/8 | Animals with focal renal tubular epithelial cell degeneration and/or regeneration (minimal to mild regeneration in renal cortex) ([2]; monkeys 12 months, 50 mg/kg): 3/8 | Females with cystic ovarian follicles ([2]; monkeys 12 months, 50 mg/kg): 1/4 | Males with cellular casts ([2]; monkeys 12 months, 50 mg/kg): 1/4 | Animals with hepatic lipidosis ([2]; monkeys 12 months, 50 mg/kg/day): 3/8 | Animals with cellular casts ([2]; monkeys 12 months, 125 mg/kg): 4/4 | Animals with focal renal tubular epithelial cell degeneration and/or regeneration (minimal to mild regeneration in renal cortex) ([2]; monkeys 12 months, 125 mg/kg): 6/8 | Females with cellular casts ([2]; monkeys 12 months, 125 mg/kg): 2/4 | Females with cystic ovarian follicles ([2]; monkeys 12 months, 125 mg/kg): 3/4 | Males with cellular casts ([2]; monkeys 12 months, 125 mg/kg): 1/4 | Animals with regeneration (incl. moderate) ([2]; monkeys 12 months, 125 mg/kg group): 7/8 | Animals with hepatic lipidosis ([2]; monkeys 12 months, 250 mg/kg/day): 4/8 | Doses with dose-dependent decrease in activity and hunched appearance ([2]; monkeys 12 months, both sexes): ≥ 10 mg/kg | Females with moderate epithelial regeneration ([2]; monkeys 12 months, high dose): 1/4 | Animals with minimal to mild tubular epithelial degeneration ([2]; monkeys 12 months, high dose group (125 mg/kg)): 6 of 8 | Doses at which cholesterol, LDL and HDL decreased ([2]; monkeys, 12-month study): ≥ 10 mg/kg/day | Lorcaserin-related deaths ([2]; monkeys, 12-month study): no lorcaserin-related deaths | Doses with reduced weight gain and food consumption ([2]; monkeys, 28-day, 13-week and 12-month studies): ≥ 10 mg/kg/day
